Measured values published in ChEMBL document CHEMBL5465560, “Selectivity Literature for EUbOPEN Chemogenomic Library” (2024).

What was measured:
[1] = test system: Leucine-rich repeat serine/threonine-protein kinase 2 (Homo sapiens), Q5S007 [G2019S]; test: (§1) Selectivity interaction (Ambit KINOMEscan and KiNATiv profiling in Jurkat cells) EUB0000090b LRRK2; type: cell-based; settings: at 1 µM
[2] = molecular target: Leucine-rich repeat serine/threonine-protein kinase 2 (Homo sapiens, UniProt Q5S007); test: as §1; type: cell-based; settings: at 1 µM
Sequence of Leucine-rich repeat serine/threonine-protein kinase 2 (Q5S007 whole entry): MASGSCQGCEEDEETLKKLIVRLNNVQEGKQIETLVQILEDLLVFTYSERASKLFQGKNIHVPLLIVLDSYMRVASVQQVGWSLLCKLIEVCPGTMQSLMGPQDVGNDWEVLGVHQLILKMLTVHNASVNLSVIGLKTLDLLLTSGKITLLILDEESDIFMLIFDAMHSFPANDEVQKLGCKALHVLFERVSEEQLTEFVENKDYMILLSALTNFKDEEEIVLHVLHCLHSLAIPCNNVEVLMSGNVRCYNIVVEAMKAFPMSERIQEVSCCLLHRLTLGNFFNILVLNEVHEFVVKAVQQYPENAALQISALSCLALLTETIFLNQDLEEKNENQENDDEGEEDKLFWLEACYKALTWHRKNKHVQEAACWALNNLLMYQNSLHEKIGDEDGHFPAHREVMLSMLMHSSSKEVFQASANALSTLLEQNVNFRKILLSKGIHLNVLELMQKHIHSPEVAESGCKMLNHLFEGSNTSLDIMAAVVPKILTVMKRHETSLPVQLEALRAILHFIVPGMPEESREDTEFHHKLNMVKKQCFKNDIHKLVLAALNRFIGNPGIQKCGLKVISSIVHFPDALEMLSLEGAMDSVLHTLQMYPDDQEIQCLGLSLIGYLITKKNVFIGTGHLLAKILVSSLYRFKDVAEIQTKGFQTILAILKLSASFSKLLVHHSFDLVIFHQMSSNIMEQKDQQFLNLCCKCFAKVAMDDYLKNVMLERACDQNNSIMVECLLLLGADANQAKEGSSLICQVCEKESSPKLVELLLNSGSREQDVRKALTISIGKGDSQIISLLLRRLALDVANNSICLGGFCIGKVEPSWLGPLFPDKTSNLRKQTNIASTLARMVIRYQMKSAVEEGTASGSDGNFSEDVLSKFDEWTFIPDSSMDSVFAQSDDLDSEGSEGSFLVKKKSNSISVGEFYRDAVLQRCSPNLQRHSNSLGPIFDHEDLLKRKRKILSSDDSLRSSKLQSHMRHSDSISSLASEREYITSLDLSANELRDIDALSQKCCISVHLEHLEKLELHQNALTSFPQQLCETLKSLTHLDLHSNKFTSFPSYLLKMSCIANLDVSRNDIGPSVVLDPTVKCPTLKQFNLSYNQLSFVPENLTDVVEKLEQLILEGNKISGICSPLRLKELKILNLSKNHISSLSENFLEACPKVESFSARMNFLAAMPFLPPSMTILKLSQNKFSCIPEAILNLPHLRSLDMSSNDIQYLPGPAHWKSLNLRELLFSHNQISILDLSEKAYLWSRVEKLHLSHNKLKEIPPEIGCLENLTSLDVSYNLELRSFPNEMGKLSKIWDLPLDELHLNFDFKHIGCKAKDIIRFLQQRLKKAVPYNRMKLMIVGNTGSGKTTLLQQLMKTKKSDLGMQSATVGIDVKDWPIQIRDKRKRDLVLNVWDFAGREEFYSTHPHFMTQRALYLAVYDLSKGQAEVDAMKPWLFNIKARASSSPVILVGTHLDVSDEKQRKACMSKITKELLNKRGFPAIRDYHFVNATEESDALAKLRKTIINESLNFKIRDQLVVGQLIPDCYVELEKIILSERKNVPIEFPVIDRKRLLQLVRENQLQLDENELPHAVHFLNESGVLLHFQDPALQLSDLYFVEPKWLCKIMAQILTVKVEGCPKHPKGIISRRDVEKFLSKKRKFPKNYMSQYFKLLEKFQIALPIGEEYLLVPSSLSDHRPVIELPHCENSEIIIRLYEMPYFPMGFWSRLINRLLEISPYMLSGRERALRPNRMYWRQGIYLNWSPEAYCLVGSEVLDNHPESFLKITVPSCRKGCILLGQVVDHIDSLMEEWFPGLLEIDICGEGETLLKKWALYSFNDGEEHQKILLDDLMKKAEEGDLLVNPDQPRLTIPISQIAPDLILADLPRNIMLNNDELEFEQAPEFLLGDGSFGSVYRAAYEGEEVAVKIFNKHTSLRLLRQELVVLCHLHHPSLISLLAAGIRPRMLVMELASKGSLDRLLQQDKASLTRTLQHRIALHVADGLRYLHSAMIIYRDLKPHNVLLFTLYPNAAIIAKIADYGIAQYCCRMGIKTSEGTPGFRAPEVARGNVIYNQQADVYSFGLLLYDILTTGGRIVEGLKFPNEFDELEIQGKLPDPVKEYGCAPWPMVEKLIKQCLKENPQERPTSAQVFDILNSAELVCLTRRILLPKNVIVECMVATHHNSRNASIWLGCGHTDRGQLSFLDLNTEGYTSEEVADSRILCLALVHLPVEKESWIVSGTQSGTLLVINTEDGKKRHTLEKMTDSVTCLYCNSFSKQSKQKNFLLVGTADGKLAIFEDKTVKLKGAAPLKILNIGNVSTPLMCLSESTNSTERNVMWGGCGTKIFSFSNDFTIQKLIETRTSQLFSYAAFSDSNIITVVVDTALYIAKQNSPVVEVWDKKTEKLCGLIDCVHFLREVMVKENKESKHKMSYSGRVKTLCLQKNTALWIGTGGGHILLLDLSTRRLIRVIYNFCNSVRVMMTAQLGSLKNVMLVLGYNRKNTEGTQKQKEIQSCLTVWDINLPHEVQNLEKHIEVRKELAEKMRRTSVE

[3] = molecular target: T1, NUAK family SNF1-like kinase 1 (Homo sapiens) (UniProt O60285); test: Selectivity interaction (KinomeScan (DiscoverX)) EUB0000655a NUAK1; settings: at 10 µM
T1 sequence (whole entry): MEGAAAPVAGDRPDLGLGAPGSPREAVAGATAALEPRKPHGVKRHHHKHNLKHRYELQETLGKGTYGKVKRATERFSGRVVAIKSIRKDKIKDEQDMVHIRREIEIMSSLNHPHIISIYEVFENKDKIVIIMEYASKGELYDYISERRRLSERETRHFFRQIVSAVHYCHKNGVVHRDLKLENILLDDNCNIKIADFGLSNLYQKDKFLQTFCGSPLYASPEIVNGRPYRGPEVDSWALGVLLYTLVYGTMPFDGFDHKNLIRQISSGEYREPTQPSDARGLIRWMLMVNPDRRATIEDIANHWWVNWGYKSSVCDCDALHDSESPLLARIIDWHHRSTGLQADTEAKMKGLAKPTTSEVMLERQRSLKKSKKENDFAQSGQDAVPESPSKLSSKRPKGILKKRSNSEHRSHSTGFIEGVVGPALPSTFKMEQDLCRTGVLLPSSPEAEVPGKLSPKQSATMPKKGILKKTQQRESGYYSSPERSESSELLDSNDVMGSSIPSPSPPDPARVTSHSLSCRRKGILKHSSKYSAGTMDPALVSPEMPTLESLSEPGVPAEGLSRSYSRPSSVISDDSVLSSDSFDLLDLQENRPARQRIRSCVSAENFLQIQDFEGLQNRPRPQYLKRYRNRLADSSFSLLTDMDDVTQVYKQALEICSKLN

[4] = molecular target: T2, Mitogen-activated protein kinase 13 (Homo sapiens) (UniProt O15264); test: Selectivity interaction (KinomeScan (DiscoverX)) EUB0000607a MAPK13; settings: at 10 µM
T2 sequence (whole entry): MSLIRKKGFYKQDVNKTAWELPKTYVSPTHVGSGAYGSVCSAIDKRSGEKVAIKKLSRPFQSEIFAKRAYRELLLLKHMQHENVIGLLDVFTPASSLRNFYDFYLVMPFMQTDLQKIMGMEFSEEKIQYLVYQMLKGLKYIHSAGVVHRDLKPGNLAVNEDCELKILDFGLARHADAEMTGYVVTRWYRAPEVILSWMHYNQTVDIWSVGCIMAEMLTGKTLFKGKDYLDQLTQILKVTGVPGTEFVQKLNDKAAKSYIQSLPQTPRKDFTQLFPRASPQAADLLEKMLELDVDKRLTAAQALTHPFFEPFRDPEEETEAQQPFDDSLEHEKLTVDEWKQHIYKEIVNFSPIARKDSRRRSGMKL

[5] = molecular target: T3, Protein kinase C zeta type (Homo sapiens) (UniProt Q05513); test: Selectivity interaction (ProQinase) EUB0000171b PRKCZ; settings: at 1 µM
T3 sequence (whole entry): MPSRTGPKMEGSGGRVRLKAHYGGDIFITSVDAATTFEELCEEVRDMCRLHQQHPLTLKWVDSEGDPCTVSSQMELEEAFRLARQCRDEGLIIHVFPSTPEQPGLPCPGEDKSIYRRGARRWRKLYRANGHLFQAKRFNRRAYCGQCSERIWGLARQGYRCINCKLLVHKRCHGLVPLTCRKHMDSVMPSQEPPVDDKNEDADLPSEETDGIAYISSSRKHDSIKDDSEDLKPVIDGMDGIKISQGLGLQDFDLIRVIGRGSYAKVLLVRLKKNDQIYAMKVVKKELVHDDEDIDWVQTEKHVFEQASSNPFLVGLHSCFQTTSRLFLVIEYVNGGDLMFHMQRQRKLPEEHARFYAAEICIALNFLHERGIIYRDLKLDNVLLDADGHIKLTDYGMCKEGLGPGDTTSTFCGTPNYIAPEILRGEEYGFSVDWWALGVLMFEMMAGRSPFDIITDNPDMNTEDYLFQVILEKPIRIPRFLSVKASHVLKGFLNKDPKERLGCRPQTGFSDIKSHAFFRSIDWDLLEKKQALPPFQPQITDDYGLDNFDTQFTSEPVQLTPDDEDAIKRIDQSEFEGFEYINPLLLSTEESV

[6] = test system: Tyrosine-protein kinase ABL1 (Homo sapiens), P00519 [Q252H]; test: Selectivity interaction (KinomeScan (DiscoverX)) EUB0000666a ABL1; settings: at 10 µM
[7] = molecular target: Cyclin-dependent kinase 14 (Homo sapiens) (UniProt O94921); test: Selectivity interaction (KinomeScan (DiscoverX)) EUB0000666a CDK14; settings: at 10 µM
Sequence of Cyclin-dependent kinase 14 (Homo sapiens) (O94921 whole entry, canonical isoform): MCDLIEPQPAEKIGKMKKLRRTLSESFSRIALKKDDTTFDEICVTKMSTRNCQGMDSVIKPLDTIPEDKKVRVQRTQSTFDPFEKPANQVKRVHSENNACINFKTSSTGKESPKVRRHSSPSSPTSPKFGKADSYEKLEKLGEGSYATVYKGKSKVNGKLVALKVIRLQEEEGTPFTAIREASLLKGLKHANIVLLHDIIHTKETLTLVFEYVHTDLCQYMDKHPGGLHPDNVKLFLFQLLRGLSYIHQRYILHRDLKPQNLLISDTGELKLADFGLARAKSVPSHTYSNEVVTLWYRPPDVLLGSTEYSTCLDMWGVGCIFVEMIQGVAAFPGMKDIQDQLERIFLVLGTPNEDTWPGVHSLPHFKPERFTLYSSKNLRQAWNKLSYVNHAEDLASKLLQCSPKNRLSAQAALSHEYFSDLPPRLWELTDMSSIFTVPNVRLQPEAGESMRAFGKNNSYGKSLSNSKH

[8] = molecular target: Casein kinase I isoform gamma-3 (Homo sapiens) (UniProt Q9Y6M4); test: Selectivity interaction (KinomeScan (DiscoverX)) EUB0000666a CSNK1G3; settings: at 10 µM
Sequence of Casein kinase I isoform gamma-3 (Homo sapiens) (Q9Y6M4 whole entry, looked up, canonical isoform): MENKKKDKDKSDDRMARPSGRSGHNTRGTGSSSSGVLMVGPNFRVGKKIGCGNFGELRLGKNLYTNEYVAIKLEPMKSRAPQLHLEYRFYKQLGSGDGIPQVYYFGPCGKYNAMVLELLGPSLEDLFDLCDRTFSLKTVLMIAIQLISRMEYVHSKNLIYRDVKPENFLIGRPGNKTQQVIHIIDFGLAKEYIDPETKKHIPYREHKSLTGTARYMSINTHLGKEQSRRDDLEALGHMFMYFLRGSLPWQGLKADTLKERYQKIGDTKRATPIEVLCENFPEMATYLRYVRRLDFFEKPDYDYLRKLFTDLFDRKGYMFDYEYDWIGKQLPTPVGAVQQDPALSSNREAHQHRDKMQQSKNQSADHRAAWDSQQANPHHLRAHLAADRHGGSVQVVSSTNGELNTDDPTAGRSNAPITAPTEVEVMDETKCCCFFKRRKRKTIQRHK

[9] = molecular target: Casein kinase II subunit alpha' (Homo sapiens) (UniProt P19784); test: Selectivity interaction (KinomeScan (DiscoverX)) EUB0000092b CSNK2A2; settings: at 10 µM
Sequence of Casein kinase II subunit alpha' (Homo sapiens) (P19784 whole entry, looked up): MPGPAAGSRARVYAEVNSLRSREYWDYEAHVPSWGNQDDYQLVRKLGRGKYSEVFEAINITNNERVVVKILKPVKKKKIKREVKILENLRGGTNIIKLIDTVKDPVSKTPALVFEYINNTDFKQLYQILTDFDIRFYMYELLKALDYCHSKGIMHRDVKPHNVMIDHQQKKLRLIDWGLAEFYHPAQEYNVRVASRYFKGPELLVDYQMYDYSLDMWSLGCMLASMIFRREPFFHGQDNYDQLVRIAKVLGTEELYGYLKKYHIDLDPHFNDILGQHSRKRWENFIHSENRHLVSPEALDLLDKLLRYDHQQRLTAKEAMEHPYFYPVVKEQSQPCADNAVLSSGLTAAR

Sequence of Leucine-rich repeat serine/threonine-protein kinase 2 (Homo sapiens), Q5S007 [G2019S] (Q5S007 whole entry G2019S): as the sequence (Q5S007 whole entry) above, with G2019S counted along it

Work on `CN(C)C/C=C/C(=O)Nc1ccc(C(=O)N2CCCC(Nc3ncc(Cl)c(-c4c[nH]c5ccccc45)n3)C2)cc1` (centres undefined) yielded a % of control [1] of 92% and a % of control [2] of 84%.
Work on `CN(C)CCOc1ccc(-c2nc(-c3ccncc3)c(-c3ccc4c(c3)CC/C4=N\O)[nH]2)cc1` yielded a % of control [3] of 100%.
For `CNC(=O)Nc1ccc(-c2nc(N3CC4CCC(C3)O4)c3cnn(C4CCC5(CC4)OCCO5)c3n2)cc1`, the % of control [4] was 16%.
For `C=CC(=O)Nc1cccc(C(=O)Nc2ccc(Nc3cc(-c4[nH]c(SC)nc4C)ccn3)cc2)c1`, the % of control [5] was 90%.
Work on `O=C(NOC[C@H](O)CO)c1ccc(F)c(F)c1Nc1ccc(I)cc1F` yielded a % of control [6] of 100%, a % of control [7] of 100% and a % of control [8] of 67%.
`CCC(=O)N1CCN(c2ccc(-n3c(=O)ccc4cnc5ccc(-c6cnc7ccccc7c6)cc5c43)cc2C(F)(F)F)CC1` was tested, and the % of control [9] was 11%.
